Measurements from ChEMBL document CHEMBL1136467, “A simple stereoselective synthesis and biological evaluation of FR181157: orally active prostacyclin mimetic” (Bioorg Med Chem Lett, 2003).
Each block holds one compound with its values, some of them ahead of it.

Key:
[1] = species: Homo sapiens; experiment: In vitro inhibition of ADP-induced platelet aggregation using human platelet rich plasma; format: functional
[2] = species: Rattus norvegicus; experiment: In vitro inhibition of ADP-induced platelet aggregation using rat platelet rich plasma; format: functional
[3] = Pharmacokinetic property (F) was measured in dog at the dose of 0.032 mg/kg; format: ADME, organism-based, Canis lupus familiaris; set-up: dose 0.032 mg/kg; conditions: in vivo
[4] = species: Canis familiaris; experiment: In vitro inhibition of ADP-induced platelet aggregation using dog platelet rich plasma; format: functional; conditions: Canis lupus familiaris
[5] = Pharmacokinetic property (t1/2beta) was measured in dog at the dose of 0.032 mg/kg i.v.; format: ADME, organism-based, Canis lupus familiaris; set-up: dose 0.032 mg/kg, route intravenous; conditions: in vivo, iv, read-out: T1/2 beta (converted)
[6] = Pharmacokinetic property (Tmax) was measured in dog at the dose of 0.032 mg/kg p.o.; format: ADME, organism-based, Canis lupus familiaris; set-up: dose 0.032 mg/kg, route oral; conditions: in vivo, po
[7] = Pharmacokinetic property (F) was measured in rat at the dose of 0.32 mg/kg; format: ADME, organism-based; set-up: dose 0.32 mg/kg; conditions: in vivo
[8] = Pharmacokinetic property (Cmax) was measured in dog at the dose of 0.032 mg/kg; format: ADME, organism-based, Canis lupus familiaris; set-up: dose 0.032 mg/kg; conditions: in vivo
[9] = target: Prostacyclin receptor (Homo sapiens, UniProt P43119); experiment: In vitro Prostacyclin (PGI-2) receptor binding assay was determined based on displacement of [3H]iloprost radioligand from cloned human IP receptor
Sequence of Prostacyclin receptor (P43119 whole entry): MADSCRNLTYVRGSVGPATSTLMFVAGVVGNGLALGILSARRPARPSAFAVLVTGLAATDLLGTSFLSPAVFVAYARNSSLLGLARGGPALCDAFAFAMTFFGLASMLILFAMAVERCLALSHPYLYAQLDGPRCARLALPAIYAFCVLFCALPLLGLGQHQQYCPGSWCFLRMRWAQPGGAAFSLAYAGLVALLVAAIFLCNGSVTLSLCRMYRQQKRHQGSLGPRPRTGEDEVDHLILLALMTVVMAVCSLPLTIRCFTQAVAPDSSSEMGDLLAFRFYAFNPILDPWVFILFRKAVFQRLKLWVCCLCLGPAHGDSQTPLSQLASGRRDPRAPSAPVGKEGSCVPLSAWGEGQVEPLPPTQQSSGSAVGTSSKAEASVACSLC

[10] = Pharmacokinetic property (CLtot) was measured in dog at the dose of 0.032 mg/kg i.v.; format: ADME, organism-based, Canis lupus familiaris; set-up: dose 0.032 mg/kg, route intravenous; conditions: in vivo, iv, read-out: CLtotal
[11] = Pharmacokinetic property (CLtot)of the compound was measured in rat at the dose of 0.32 mg/kg i.v.; format: ADME, organism-based; set-up: dose 0.32 mg/kg, route intravenous; conditions: in vivo, iv, read-out: CLtotal
[12] = Pharmacokinetic property (AUC) was measured in rat at the dose of 0.32 mg/kg p.o.; format: ADME, organism-based; set-up: dose 0.32 mg/kg, route oral; conditions: in vivo, po
[13] = Pharmacokinetic property (Tmax) was measured in rat at the dose of 0.32 mg/kg p.o.; format: ADME, organism-based; set-up: dose 0.32 mg/kg, route oral; conditions: in vivo, po
[14] = Pharmacokinetic property (Cmax) was measured in rat at the dose of 0.32 mg/kg p.o.; format: ADME, organism-based; set-up: dose 0.32 mg/kg, route oral; conditions: in vivo, po
[15] = Pharmacokinetic property (AUC) was measured in dog at the dose of 0.032 mg/kg p.o.; format: ADME, organism-based, Canis lupus familiaris; set-up: dose 0.032 mg/kg, route oral; conditions: in vivo, po
[16] = Pharmacokinetic property (t1/2beta) was measured in rat at the dose of 0.32 mg/kg i.v.; format: ADME, organism-based; set-up: dose 0.32 mg/kg, route intravenous; conditions: in vivo, iv, read-out: T1/2 beta (converted)

IC50 [1]: 2.5 nM
Structure (SMILES): CC#CCC(C)[C@H](O)/C=C/[C@@H]1[C@H]2C/C(=C/CCCC(=O)O)C[C@H]2C[C@H]1O (some centres undefined) [ILOPROST]

IC50 [2]: 1200 nM
bioavailability [3]: 72%
IC50 [4]: 1300 nM
half-life [5]: 26 h
Tmax [6]: 2.3 h
bioavailability [7]: 50%
Cmax [8]: 38.7 ng/mL
Ki [9]: 54 nM
clearance [10]: 1.09 mL/min/kg
clearance [11]: 17.7 mL/min/kg
AUC [12]: 147 ng·h/mL
Tmax [13]: 0.3 h
Cmax [14]: 16.4 ng/mL
AUC [15]: 392 ng·h/mL
half-life [16]: 6.6 h
IC50 [1]: 60 nM
Structure (SMILES): O=C([O-])COc1cccc(C[C@@H]2CCCC=C2c2nc(-c3ccccc3)c(-c3ccccc3)o2)c1.[Na+]

IC50 [1]: 110 nM
Structure (SMILES): O=C(O)COc1cccc(C[C@H]2CCCC=C2c2nc(-c3ccccc3)c(-c3ccccc3)o2)c1

IC50 [1]: 530 nM
Structure (SMILES): O=C(O)COc1cccc(CC2=C(c3nc(-c4ccccc4)c(-c4ccccc4)o3)CCCC2)c1
